Values of other authors as cited in patent US20050090475A1, “Extended triphasic contraceptive regimens” (priority 2003, published 2005).

Columns and labels:
[1] = target: T1, endometrial progesterone receptors (Homo sapiens, UniProt P06401)
T1 sequence (P06401 1-933): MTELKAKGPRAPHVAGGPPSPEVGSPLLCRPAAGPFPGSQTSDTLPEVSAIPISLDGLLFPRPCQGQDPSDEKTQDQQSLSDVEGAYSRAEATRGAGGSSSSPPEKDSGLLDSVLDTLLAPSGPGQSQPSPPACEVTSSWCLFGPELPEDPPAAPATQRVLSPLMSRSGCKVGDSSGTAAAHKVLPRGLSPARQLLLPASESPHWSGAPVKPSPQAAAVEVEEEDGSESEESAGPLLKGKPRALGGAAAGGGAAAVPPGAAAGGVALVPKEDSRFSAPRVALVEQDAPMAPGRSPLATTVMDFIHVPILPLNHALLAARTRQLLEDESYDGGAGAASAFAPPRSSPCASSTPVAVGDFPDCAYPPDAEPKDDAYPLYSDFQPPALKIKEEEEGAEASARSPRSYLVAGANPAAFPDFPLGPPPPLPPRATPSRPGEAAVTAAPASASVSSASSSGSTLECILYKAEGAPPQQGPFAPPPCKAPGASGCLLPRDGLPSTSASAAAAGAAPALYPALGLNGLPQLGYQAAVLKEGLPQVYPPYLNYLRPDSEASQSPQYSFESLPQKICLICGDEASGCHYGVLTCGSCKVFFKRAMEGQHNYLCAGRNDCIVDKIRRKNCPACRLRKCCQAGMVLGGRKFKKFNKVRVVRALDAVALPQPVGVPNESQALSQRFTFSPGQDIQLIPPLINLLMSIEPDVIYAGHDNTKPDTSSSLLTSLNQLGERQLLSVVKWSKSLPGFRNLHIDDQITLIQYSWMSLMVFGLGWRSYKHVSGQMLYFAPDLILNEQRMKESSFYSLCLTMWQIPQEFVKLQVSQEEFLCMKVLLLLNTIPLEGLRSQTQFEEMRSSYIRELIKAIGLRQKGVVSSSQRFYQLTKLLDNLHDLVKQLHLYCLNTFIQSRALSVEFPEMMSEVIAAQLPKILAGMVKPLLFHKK

[2] = tested on: serum hormone binding globulin (SHBG); conditions: in vivo
endometrium = conditions: animal models
[3] = ovariectomized rat, compared with progesterone

C#C[C@]1(OC(C)=O)CC[C@H]2[C@@H]3CCC4=CC(=NO)CC[C@@H]4[C@H]3CC[C@@]21CC (mixture of isomers) [norgestimate]
affinity for endometrial progesterone receptors [1]: high affinity
effect on serum hormone binding globulin (SHBG) levels [2]: minimal effect
endometrium in comparison to other, more androgenic, progestins (endometrium): remains relatively thick and supported
maintenance of pregnancy [3]: maintains pregnancy as well as progesterone
